Assays:
Test in all cases: Post-emergence test on weeds (greenhouse, spray at 2-3 leaf stage)
Assay type in all cases: in vivo
Parameters in all cases: key: Level 10: completely dead; Level 9: growth control rate greater than or equal to 90% and less than 100%; Level 8: growth control rate greater than or equal to 80% and less than 90%; Level 7: growth control rate greater than or equal to 70% and less than 80%; Level 6: growth control rate greater than or equal to 60% and less than 70%; Level 5: growth control rate greater than or equal to 50% and less than 60%; Level 4: growth control rate greater than or equal to 40% and less than 50%; Level 3: growth control rate greater than or equal to 30% and less than 40%; Level 2: growth control rate greater than or equal to 20% and less than 30%; Level 1: growth control rate less than 20%; Level 0: no effect
Conditions in all cases: 60 g a.i./ha, 3 weeks after application
Amaranthus retroflexus = system: Amaranthus retroflexus
Excerpt: (§1) The activity level criteria for plant damage (i.e., growth control rate) are as follows: • Level 10: completely dead; • Level 9: growth control rate greater than or equal to 90% and less than 100%; • Level 8: growth control rate greater than or equal to 80% and less than 90%; • Level 7: growth control rate greater than or equal to 70% and less than 80%; • Level 6: growth control rate greater than or equal to 60% and less than 70%; • Level 5: growth control rate greater than or equal to 50% and less than 60%; • Level 4: growth control rate greater than or equal to 40% and less than 50%; • Level 3: growth control rate greater than or equal to 30% and less than 40%; • Level 2: growth control rate greater than or equal to 20% and less than 30%; • Level 1: growth control rate less than 20%; • Level 0: no effect.
(§2) The above growth control rates are fresh weight control rates.
(§3) Monocotyledonous and dicotyledonous weed seeds (Descurainia sophia, Capsella bursa-pastoris, Abutilon theophrasti, Galium spurium, Stellaria media, Lithospermum arvense, Rorippa indica, Alopecurus aequalis, Alopecurus japonicus, Eleusine indica, Beckmannia syzigachne, Sclerochloa dura, Erigeron canadensis, Phleum paniculatum, Veronica polita, Bromus japonicus, Aegilops tauschii, Phalaris arundinacea, Amaranthus retrofexus, Chenopodium, Commelina communis, Cichorium endivia, Convolvulus arvensis, Cirsium arvense, Solanum nigrum, Acalypha australis, Digitaria sanguinalis, Echinochloa crus-galli, Setaria viridis, Setaa pumila, Lepochloa chinensis, Monochona vaginalis, Sagitta trifolia, Schoenoplectiella juncoides, Cypenus rotundus, Cyperus ira, Cyperus difformis, Fimbristylis, Portulaca oleracea, Xanthium sibiricum, Ipomoea nil, Eschenbachia japonica, etc.) and major crop seeds (wheat, maize, paddy rice, soybean, cotton, oilseed rape, millet, sorghum, potato, sesame, castor plant, etc.) were placed in plastic pots filled with soil and then covered with 0.5-2 cm of soil to allow them to grow in a favorable greenhouse environment. Two weeks after sowing, the test plants were treated at the stage of 2-3 leaves. The test compounds of the present invention were individually dissolved with acetone, then added with Tween® 80, with 1.5 L/ha of methyl oleate emulsifiable concentrate as a synergist, diluted into solutions of certain concentrations using certain amount of water, and sprayed to the plants using a spray tower. After drug application, the experimental results on weeds were collected after 3 weeks of cultivation in a greenhouse. The compounds were applied at 500, 250, […], 15, and 7.5 g a.i./ha in triplicate, and the results were averaged.

Setaria viridis = system: Setaria viridis
Excerpt: as §1, §2, §3

Echinochloa crus-galli = system: Echinochloa crus-galli
Excerpt: as §1, §2, §3

Abutilon theophrasti = system: Abutilon theophrasti
Excerpt: as §1, §2, §3

Digitaria sanguinalis = system: Digitaria sanguinalis
Excerpt: as §1, §2, §3

Veronica polita = system: Veronica polita
Excerpt: as §1, §2, §3

CC1(C(=O)O)ON=C(c2cc(-c3ncc(C(F)(F)F)cc3Cl)c(F)cc2Cl)O1 (stereo not drawn) [Compound 1]
10: activity level (fresh weight growth control rate), Amaranthus retroflexus (Amaranthus retroflexus) | activity level (fresh weight growth control rate), Setaria viridis (Setaria viridis) | activity level (fresh weight growth control rate), Echinochloa crus-galli (Echinochloa crus-galli) | activity level (fresh weight growth control rate), Abutilon theophrasti (Abutilon theophrasti) | activity level (fresh weight growth control rate), Digitaria sanguinalis (Digitaria sanguinalis) | activity level (fresh weight growth control rate), Veronica polita (Veronica polita)

COC(=O)C1ON=C(c2cc(-c3ncc(C(F)(F)F)cc3Cl)c(F)cc2Br)O1 (stereo not drawn) [Compound 2]
10: activity level (fresh weight growth control rate), Amaranthus retroflexus (Amaranthus retroflexus) | activity level (fresh weight growth control rate), Setaria viridis (Setaria viridis) | activity level (fresh weight growth control rate), Echinochloa crus-galli (Echinochloa crus-galli) | activity level (fresh weight growth control rate), Abutilon theophrasti (Abutilon theophrasti) | activity level (fresh weight growth control rate), Digitaria sanguinalis (Digitaria sanguinalis) | activity level (fresh weight growth control rate), Veronica polita (Veronica polita)

COC(=O)C1(C)ON=C(c2cc(-c3ncc(OC(F)F)cc3Cl)c(F)cc2Cl)O1 (stereo not drawn) [Compound 3]
10: activity level (fresh weight growth control rate), Amaranthus retroflexus (Amaranthus retroflexus) | activity level (fresh weight growth control rate), Setaria viridis (Setaria viridis) | activity level (fresh weight growth control rate), Echinochloa crus-galli (Echinochloa crus-galli) | activity level (fresh weight growth control rate), Abutilon theophrasti (Abutilon theophrasti) | activity level (fresh weight growth control rate), Digitaria sanguinalis (Digitaria sanguinalis) | activity level (fresh weight growth control rate), Veronica polita (Veronica polita)

COC(=O)C1(C)ON=C(c2cc(-c3ncc(C(F)(F)F)c(F)c3F)c(F)cc2Cl)O1 (stereo not drawn) [Compound 4]
10: activity level (fresh weight growth control rate), Amaranthus retroflexus (Amaranthus retroflexus) | activity level (fresh weight growth control rate), Setaria viridis (Setaria viridis) | activity level (fresh weight growth control rate), Echinochloa crus-galli (Echinochloa crus-galli) | activity level (fresh weight growth control rate), Abutilon theophrasti (Abutilon theophrasti) | activity level (fresh weight growth control rate), Digitaria sanguinalis (Digitaria sanguinalis) | activity level (fresh weight growth control rate), Veronica polita (Veronica polita)

COC(=O)C1(C)ON=C(c2cc(-c3ncc(Br)cc3Cl)c(F)cc2Cl)O1 (stereo not drawn) [Compound 5]
10: activity level (fresh weight growth control rate), Amaranthus retroflexus (Amaranthus retroflexus) | activity level (fresh weight growth control rate), Setaria viridis (Setaria viridis) | activity level (fresh weight growth control rate), Echinochloa crus-galli (Echinochloa crus-galli) | activity level (fresh weight growth control rate), Abutilon theophrasti (Abutilon theophrasti) | activity level (fresh weight growth control rate), Digitaria sanguinalis (Digitaria sanguinalis) | activity level (fresh weight growth control rate), Veronica polita (Veronica polita)

COC(=O)C1(C)ON=C(c2cc(-c3ncc(C(F)(F)F)cc3F)c(F)cc2Cl)O1 (stereo not drawn) [Compound 6]
10: activity level (fresh weight growth control rate), Amaranthus retroflexus (Amaranthus retroflexus) | activity level (fresh weight growth control rate), Setaria viridis (Setaria viridis) | activity level (fresh weight growth control rate), Echinochloa crus-galli (Echinochloa crus-galli) | activity level (fresh weight growth control rate), Abutilon theophrasti (Abutilon theophrasti) | activity level (fresh weight growth control rate), Digitaria sanguinalis (Digitaria sanguinalis) | activity level (fresh weight growth control rate), Veronica polita (Veronica polita)

COC(=O)C1(C)ON=C(c2cc(-c3ncc(F)cc3F)c(F)cc2Cl)O1 (stereo not drawn) [Compound 7]
10: activity level (fresh weight growth control rate), Amaranthus retroflexus (Amaranthus retroflexus) | activity level (fresh weight growth control rate), Setaria viridis (Setaria viridis) | activity level (fresh weight growth control rate), Echinochloa crus-galli (Echinochloa crus-galli) | activity level (fresh weight growth control rate), Abutilon theophrasti (Abutilon theophrasti) | activity level (fresh weight growth control rate), Digitaria sanguinalis (Digitaria sanguinalis) | activity level (fresh weight growth control rate), Veronica polita (Veronica polita)

COC(=O)C1(C)ON=C(c2cc(-c3ncccc3Cl)c(F)cc2Cl)O1 (stereo not drawn) [Compound 8]
10: activity level (fresh weight growth control rate), Amaranthus retroflexus (Amaranthus retroflexus) | activity level (fresh weight growth control rate), Setaria viridis (Setaria viridis) | activity level (fresh weight growth control rate), Echinochloa crus-galli (Echinochloa crus-galli) | activity level (fresh weight growth control rate), Abutilon theophrasti (Abutilon theophrasti) | activity level (fresh weight growth control rate), Digitaria sanguinalis (Digitaria sanguinalis) | activity level (fresh weight growth control rate), Veronica polita (Veronica polita)

COC(=O)C1(C)ON=C(c2cc(-c3ncc(C(F)(F)F)cc3Cl)c(F)cc2Br)O1 (stereo not drawn) [Compound 9]
10: activity level (fresh weight growth control rate), Amaranthus retroflexus (Amaranthus retroflexus) | activity level (fresh weight growth control rate), Setaria viridis (Setaria viridis) | activity level (fresh weight growth control rate), Echinochloa crus-galli (Echinochloa crus-galli) | activity level (fresh weight growth control rate), Abutilon theophrasti (Abutilon theophrasti) | activity level (fresh weight growth control rate), Digitaria sanguinalis (Digitaria sanguinalis) | activity level (fresh weight growth control rate), Veronica polita (Veronica polita)

COC(=O)C1(C)ON=C(c2cc(-c3ncc(C(C)(F)F)cc3Cl)c(F)cc2Cl)O1 (stereo not drawn) [Compound 10]
10: activity level (fresh weight growth control rate), Amaranthus retroflexus (Amaranthus retroflexus) | activity level (fresh weight growth control rate), Setaria viridis (Setaria viridis) | activity level (fresh weight growth control rate), Echinochloa crus-galli (Echinochloa crus-galli) | activity level (fresh weight growth control rate), Abutilon theophrasti (Abutilon theophrasti) | activity level (fresh weight growth control rate), Digitaria sanguinalis (Digitaria sanguinalis) | activity level (fresh weight growth control rate), Veronica polita (Veronica polita)

COC(=O)C1(C)ON=C(c2cc(-c3ncc(Cl)cc3Cl)c(F)cc2Cl)O1 (stereo not drawn) [Compound 11]
10: activity level (fresh weight growth control rate), Amaranthus retroflexus (Amaranthus retroflexus) | activity level (fresh weight growth control rate), Setaria viridis (Setaria viridis) | activity level (fresh weight growth control rate), Echinochloa crus-galli (Echinochloa crus-galli) | activity level (fresh weight growth control rate), Abutilon theophrasti (Abutilon theophrasti) | activity level (fresh weight growth control rate), Digitaria sanguinalis (Digitaria sanguinalis) | activity level (fresh weight growth control rate), Veronica polita (Veronica polita)
